Values of other authors in patent publication US20170273935A1, “CINEOLE-CONTAINING COMPOSITION FOR NASAL APPLICATION” (Maria Clementine Martin Klosterfrau Vertriebsgesellschaft …, priority 2014, published 2017).

solubility in water: insoluble in water
SMILES: CC12CCC(CC1)C(C)(C)O2 [1,8-cineole, 1,3,3-trimethyl-2-oxabicyclo[2.2.2]octane]
